According to ChEMBL document CHEMBL5725945, “Autotaxin inhibitors” (2018):

Each compound was assayed against Autotaxin (Homo sapiens, UniProt Q13822) (assay: Quanta Red Assay: Measuring ATX activity using an enzyme coupled Quanta Red assay (Thermo Scientific Pierce Protein Research Products, Product #15159) was determined as follows. 8 μL human recombinant ATX (final concentration 0.8 μg/mL) in 1× Assay buffer containing 50 mM Tris-HCl (pH 8.0), 5 mM CaCl2 was added to an opaque black flat-bottom 384-well plate (Corning, #3575) containing 2 μL test compound in 40% DMSO (4% final DMSO concentration). 10 μL of Quanta Red, Horseradish peroxidase (HRP), Choline Oxidase (CO), Rac-1-Palmitoyl-glycero-3-phosphocholine solution (final concentration 1:250 for Quanta Red, 0.5units/ml HRP, 0.5units/ml CO, 15 μM Rac-1-Palmitoyl-glycero-3-phosphocholine) in 1× assay buffer (as described previously) was added to each well to start the reaction and the plate was incubated at room temperature for 2 hours. The reaction was stopped after 2 hours with a 20 μL addition of Quanta Red Stop solution (1:20 dilution in distilled water). The above-described mixture with DMSO alone was used as a positive control whereas that with DMSO alone without ATX was taken as a negative control. For each test compound, ten concentrations were measured covering a range of 6.1 nM to 120 μM to determine IC50 values. The top concentration was decreased to 1.2 μM when a test compound's IC50 value was evaluated in low nanomolar range. Fluorescence was determined in a BMG Labtech Pherastar plus plate reader ([…]). Data were analysed using Excel fit software.).

Point of comparison: `O=C1CN(Cc2ccc(N3C[C@H](NC(=O)c4nnc(CCc5ccc(Cl)cc5)s4)CC3=O)cc2)CCN1`, IC50 8 nM. Against it:
- O=C(Nc1cc(CCc2ccc(Cl)cc2)[nH]n1)C1CC(=O)N(c2ccc(CN3CCOCC3)cc2)C1 (stereo not drawn) — 1.6-fold lower, 5 nM
- CCCN(C)Cc1ccc(N2CC(C(=O)Nc3nnc(CCc4ccc(Cl)cc4)s3)CC2=O)cc1 (stereo not drawn) — 2.7-fold lower, 3 nM
- O=C(Nc1nnc(CCC2CCOCC2)s1)C1CC(=O)N(c2ccc(CN3CCOCC3)cc2)C1 (stereo not drawn) — 45-fold higher, 358 nM
- CCCN(CC)Cc1ccc(N2CC(C(=O)Nc3nnc(CCc4ccc(Cl)cc4)s3)CC2=O)cc1 (stereo not drawn) — 2-fold lower, 4 nM
- O=C(Nc1nnc(CCC2CCCC2)s1)C1CC(=O)N(c2ccc(CN3CCOCC3)cc2)C1 (stereo not drawn) — 2.7-fold lower, 3 nM
- CN1CCN(Cc2ccc(N3C[C@H](NC(=O)c4nnc(CCc5ccc(Cl)cc5)s4)CC3=O)cc2)CC1 — 16-fold higher, 124 nM
- CCC(C)CCc1nnc(NC(=O)C2CC(=O)N(c3ccc(CN4CCOCC4)cc3)C2)s1 (stereo not drawn) — within 1.5-fold, 11 nM
